Results published in ChEMBL document CHEMBL1132591, “Synthesis of retinoid X receptor-specific ligands that are potent inducers of adipogenesis in 3T3-L1 cells” (J Med Chem, 1999).

What was measured:
[1] = molecular target: T1, Retinoic acid receptor RXR-gamma (Homo sapiens, UniProt P48443); assay: Transcriptional activity was evaluated in CV-1 cells transfected with expression vector for Retinoic acid receptor RXR-gamma; format: functional, cell-based
T1 sequence (P48443 whole entry): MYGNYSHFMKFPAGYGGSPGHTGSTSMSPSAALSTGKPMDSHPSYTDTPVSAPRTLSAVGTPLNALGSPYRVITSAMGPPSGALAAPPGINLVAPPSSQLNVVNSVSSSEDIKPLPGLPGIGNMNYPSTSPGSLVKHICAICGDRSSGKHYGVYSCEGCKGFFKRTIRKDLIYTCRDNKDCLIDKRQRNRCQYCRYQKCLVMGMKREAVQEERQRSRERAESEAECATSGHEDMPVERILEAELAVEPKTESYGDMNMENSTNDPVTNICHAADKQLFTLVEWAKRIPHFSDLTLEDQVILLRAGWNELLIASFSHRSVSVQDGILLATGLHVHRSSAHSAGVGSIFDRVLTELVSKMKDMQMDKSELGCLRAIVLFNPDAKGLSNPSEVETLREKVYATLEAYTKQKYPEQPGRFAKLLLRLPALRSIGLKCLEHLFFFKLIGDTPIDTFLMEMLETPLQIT

[2] = molecular target: T1, Retinoic acid receptor RXR-gamma; assay: Binding affinity towards recombinantly expressed Retinoic acid receptor RXR-gamma in baculoviral system, by using 5 nM [3H]targretin in a competitive binding assay
[3] = molecular target: T2, Retinoic acid receptor RXR-beta (Homo sapiens, UniProt P28702); assay: Binding affinity towards recombinantly expressed Retinoic acid receptor RXR-beta in baculoviral system, by using 5 nM [3H]targretin in a competitive binding assay
T2 sequence (P28702 whole entry): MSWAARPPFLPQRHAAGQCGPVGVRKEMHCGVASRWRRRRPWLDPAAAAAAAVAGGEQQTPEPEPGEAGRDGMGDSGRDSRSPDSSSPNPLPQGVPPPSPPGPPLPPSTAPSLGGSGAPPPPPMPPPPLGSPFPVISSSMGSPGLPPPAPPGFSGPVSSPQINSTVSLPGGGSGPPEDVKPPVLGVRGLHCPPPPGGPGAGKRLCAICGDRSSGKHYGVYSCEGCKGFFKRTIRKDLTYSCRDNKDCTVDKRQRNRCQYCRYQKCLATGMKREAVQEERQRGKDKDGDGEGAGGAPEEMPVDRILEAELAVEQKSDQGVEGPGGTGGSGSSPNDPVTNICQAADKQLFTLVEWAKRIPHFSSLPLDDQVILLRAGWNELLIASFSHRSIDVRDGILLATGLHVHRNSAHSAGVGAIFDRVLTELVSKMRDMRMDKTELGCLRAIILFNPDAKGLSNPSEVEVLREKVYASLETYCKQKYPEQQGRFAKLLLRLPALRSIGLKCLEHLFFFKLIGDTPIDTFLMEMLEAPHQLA

[4] = molecular target: T2, Retinoic acid receptor RXR-beta; assay: Transcriptional activity was evaluated in CV-1 cells transfected with expression vector for Retinoic acid receptor RXR-beta; format: functional, cell-based
[5] = molecular target: T3, Retinoic acid receptor RXR-alpha (Homo sapiens, UniProt P19793); assay: Transcriptional activity was evaluated in CV-1 cells transfected with expression vector for Retinoic acid receptor RXR-alpha; format: functional, cell-based
T3 sequence (P19793 whole entry): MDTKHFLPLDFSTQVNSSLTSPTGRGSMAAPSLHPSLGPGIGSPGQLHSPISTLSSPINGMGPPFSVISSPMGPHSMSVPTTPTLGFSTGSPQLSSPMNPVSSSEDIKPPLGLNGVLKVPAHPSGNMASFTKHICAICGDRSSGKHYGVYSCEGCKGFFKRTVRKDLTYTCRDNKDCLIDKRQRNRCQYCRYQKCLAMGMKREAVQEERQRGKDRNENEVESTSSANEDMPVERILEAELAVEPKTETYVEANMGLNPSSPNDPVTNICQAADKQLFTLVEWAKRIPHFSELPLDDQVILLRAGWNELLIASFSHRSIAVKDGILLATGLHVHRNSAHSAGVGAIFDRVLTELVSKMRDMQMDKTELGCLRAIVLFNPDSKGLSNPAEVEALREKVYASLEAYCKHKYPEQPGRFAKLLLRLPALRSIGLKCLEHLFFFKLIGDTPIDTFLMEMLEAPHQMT

[6] = molecular target: T3, Retinoic acid receptor RXR-alpha; assay: Binding affinity towards recombinantly expressed Retinoic acid receptor RXR-alpha in baculoviral system, by using 5 nM [3H]targretin in a competitive binding assay
[7] = molecular target: T4, Retinoic acid receptor alpha (Homo sapiens) (UniProt P10276); assay: Percent transcriptional activation relative to ATRA in CV-1 cells expressing Retinoic acid receptor RAR alpha; format: functional, cell-based
T4 sequence (whole entry): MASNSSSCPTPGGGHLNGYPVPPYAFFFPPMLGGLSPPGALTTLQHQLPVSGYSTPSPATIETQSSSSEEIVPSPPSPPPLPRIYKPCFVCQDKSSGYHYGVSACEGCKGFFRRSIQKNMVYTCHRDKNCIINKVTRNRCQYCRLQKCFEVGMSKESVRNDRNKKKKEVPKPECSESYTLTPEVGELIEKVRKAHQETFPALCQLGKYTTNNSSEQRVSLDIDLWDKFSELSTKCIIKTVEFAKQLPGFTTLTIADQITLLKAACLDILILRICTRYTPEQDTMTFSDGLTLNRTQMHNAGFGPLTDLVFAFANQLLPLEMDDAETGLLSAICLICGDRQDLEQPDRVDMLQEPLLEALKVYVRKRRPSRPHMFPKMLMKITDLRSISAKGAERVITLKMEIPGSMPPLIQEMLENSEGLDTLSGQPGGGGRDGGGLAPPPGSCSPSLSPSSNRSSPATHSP

[8] = molecular target: T5, Retinoic acid receptor beta (Homo sapiens, UniProt P10826); assay: Inhibition of [3H]ATRA binding to baculovirus expressed Retinoic acid receptor RAR beta
T5 sequence (P10826 whole entry): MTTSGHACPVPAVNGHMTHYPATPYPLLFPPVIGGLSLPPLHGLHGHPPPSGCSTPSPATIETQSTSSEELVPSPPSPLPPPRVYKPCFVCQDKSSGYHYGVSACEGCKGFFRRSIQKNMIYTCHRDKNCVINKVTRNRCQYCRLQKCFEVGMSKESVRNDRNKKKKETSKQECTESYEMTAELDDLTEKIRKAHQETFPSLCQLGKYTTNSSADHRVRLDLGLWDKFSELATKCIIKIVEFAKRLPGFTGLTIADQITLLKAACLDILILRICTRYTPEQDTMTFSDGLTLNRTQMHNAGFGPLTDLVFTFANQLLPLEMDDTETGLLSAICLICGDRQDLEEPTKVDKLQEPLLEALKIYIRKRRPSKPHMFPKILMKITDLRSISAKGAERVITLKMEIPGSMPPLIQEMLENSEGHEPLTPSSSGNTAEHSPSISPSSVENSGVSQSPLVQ

[9] = molecular target: T6, Retinoic acid receptor gamma (Homo sapiens, UniProt P13631); assay: Inhibition of [3H]-ATRA binding to baculovirus expressed Retinoic acid receptor RAR gamma
T6 sequence (P13631 whole entry): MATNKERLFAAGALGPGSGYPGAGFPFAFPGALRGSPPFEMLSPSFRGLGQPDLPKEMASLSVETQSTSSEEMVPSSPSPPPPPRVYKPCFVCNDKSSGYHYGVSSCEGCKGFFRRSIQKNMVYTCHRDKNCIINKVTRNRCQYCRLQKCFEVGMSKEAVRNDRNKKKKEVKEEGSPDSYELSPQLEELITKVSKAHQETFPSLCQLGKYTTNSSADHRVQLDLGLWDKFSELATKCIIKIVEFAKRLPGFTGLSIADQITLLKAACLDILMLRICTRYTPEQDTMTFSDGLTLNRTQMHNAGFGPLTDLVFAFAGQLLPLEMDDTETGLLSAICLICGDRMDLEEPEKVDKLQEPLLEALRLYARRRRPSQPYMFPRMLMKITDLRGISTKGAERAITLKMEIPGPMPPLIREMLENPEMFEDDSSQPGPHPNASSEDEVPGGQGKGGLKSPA

[10] = molecular target: T7, Retinoic acid receptor alpha (Homo sapiens, UniProt P10276); assay: Inhibition of [3H]ATRA binding to baculovirus expressed Retinoic acid receptor RAR alpha
T7 sequence (P10276 whole entry): T4 sequence (whole entry)

[11] = molecular target: T8, Retinoic acid receptor RXR-beta (Homo sapiens) (UniProt P28702); assay: Percent transcriptional activation relative to ATRA in CV-1 cells expressing Retinoid X receptor RXR beta; format: functional, cell-based
T8 sequence (whole entry): T2 sequence (P28702 whole entry)

[12] = molecular target: T9, Retinoic acid receptor gamma (Homo sapiens) (UniProt P13631); assay: Percent transcriptional activation relative to ATRA in CV-1 cells expressing Retinoic acid receptor RAR gamma; format: functional, cell-based
T9 sequence (whole entry): T6 sequence (P13631 whole entry)

[13] = molecular target: T10, Retinoic acid receptor beta (Homo sapiens) (UniProt P10826); assay: Percent transcriptional activation relative to ATRA in CV-1 cells expressing Retinoic acid receptor RAR beta; format: functional, cell-based
T10 sequence (whole entry): T5 sequence (P10826 whole entry)

Compound	EC50 [1] [µM]	Ki [2] [µM]	Ki [3] [µM]	EC50 [4] [µM]	EC50 [5] [µM]	Ki [6] [µM]	Efficacy [7] [%]	Ki [8] [µM]	Ki [9] [µM]	Ki [10] [µM]	Efficacy [11] [%]	Efficacy [12] [%]	Efficacy [13] [%]
Cc1cc2c(cc1/C(=N\OC(C)(C)C)c1ccc(C(=O)O)cc1)C(C)(C)CCC2(C)C	> 10	> 1	> 1	> 10	> 10	> 1							
Cc1cc2c(cc1/C(=N\O)c1ccc(C(=O)O)cc1)C(C)(C)CCC2(C)C	0.034	0.209	0.12	0.165									
CC1(C)CCC(C)(C)c2cc(/C(=N/O)c3ccc(C(=O)O)cc3)ccc21	2.89	5.05	3.36	> 10	2.96	4.23							
CC1(C)CCC(C)(C)c2cc(/C(=N/O)c3ccc(C(=O)O)cc3)c(Br)cc21	0.026	0.057	0.006	0.032	0.027	0.012							
Cc1cc2c(cc1/C(=N/O)c1ccc(C(=O)O)cc1)C(C)(C)CCC2(C)C	0.007	0.005	0.005	0.014			6				81	13	10
CCCCO/N=C(\c1ccc(C(=O)O)cc1)c1cc2c(cc1C)C(C)(C)CCC2(C)C	0.099	0.224	0.283	0.157	0.086	0.177							
Cc1cc2c(cc1/C(=N/OC(C)(C)C)c1ccc(C(=O)O)cc1)C(C)(C)CCC2(C)C	> 10	0.445	0.623	> 10	> 10	0.484							
CO/N=C(/c1ccc(C(=O)O)cc1)c1ccc2c(c1)C(C)(C)CCC2(C)C	0.206	0.558	0.363	0.207	0.253	> 1							

The remaining lines, values ahead:

EC50 [1] [µM]	Ki [2] [µM]	Ki [3] [µM]	EC50 [4] [µM]	EC50 [5] [µM]	Ki [6] [µM]	Efficacy [7] [%]	Ki [8] [µM]	Ki [9] [µM]	Ki [10] [µM]	Efficacy [11] [%]	Efficacy [12] [%]	Efficacy [13] [%]	Compound
0.011	0.014	0.014	0.025	0.012	0.011								Cc1cc2c(cc1/C(=N/OCC#N)c1ccc(C(=O)O)cc1)C(C)(C)CCC2(C)C
0.009	0.042	0.058	0.012	0.005	0.026								CCO/N=C(\c1ccc(C(=O)O)cc1)c1cc2c(cc1C)C(C)(C)CCC2(C)C
1.38	> 1	> 1	1.38	0.713	> 1								Cc1cc2c(cc1/C(=N/OCC(=O)O)c1ccc(C(=O)O)cc1)C(C)(C)CCC2(C)C
0.004	0.008	0.008	0.01	0.005	0.009	2	> 10	> 10	> 10	90	2	5	CO/N=C(\c1ccc(C(=O)O)cc1)c1cc2c(cc1C)C(C)(C)CCC2(C)C
0.254	0.238	> 1	0.377	0.384	0.394								CO/N=C(/c1ccc(C(=O)O)cc1)c1cc2c(cc1C)C(C)(C)CCC2(C)C
0.306	> 1	> 1	0.061	0.35	> 1								Cc1cc2c(cc1/C(=N/OCCN)c1ccc(C(=O)O)cc1)C(C)(C)CCC2(C)C
0.028	0.057	0.061	0.037	0.032	0.006								CCCO/N=C(\c1ccc(C(=O)O)cc1)c1cc2c(cc1C)C(C)(C)CCC2(C)C
0.007	0.08	0.015	0.018	0.006	0.007								C=CCO/N=C(\c1ccc(C(=O)O)cc1)c1cc2c(cc1C)C(C)(C)CCC2(C)C
> 10	0.467	> 1	> 10	> 10	0.62								CCO/N=C(/c1ccc(C(=O)O)cc1)c1cc2c(cc1C)C(C)(C)CCC2(C)C
